Data on seven compounds can be found in publication PMC6542369 (Bioorganic & medicinal chemistry letters, 2017).

Each structure is given as a SMILES string. A value given as a limit tells only on which side of the number the result lay.

One test addresses T1, hM4 (Homo sapiens, UniProt P08173).
T1 sequence (P08173 1-479): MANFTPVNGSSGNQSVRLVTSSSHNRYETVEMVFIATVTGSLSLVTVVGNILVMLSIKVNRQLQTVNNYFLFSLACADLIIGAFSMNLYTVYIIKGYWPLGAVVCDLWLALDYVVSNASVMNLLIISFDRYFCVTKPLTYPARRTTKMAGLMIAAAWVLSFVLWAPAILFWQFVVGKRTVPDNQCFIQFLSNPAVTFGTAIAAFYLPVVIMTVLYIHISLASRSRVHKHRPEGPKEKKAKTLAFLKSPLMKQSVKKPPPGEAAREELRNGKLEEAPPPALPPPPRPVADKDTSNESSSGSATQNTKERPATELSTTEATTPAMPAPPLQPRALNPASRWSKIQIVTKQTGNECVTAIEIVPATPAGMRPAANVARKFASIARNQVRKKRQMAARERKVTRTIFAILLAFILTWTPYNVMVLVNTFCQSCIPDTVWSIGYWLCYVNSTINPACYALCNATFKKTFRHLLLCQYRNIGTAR
The test is classed as cell-based. As to conditions: for loss of potency (fold): hM4 potency relative to 10a; for hM4 activity: replacement of the fluorine with other halogens.

The target of the next test is T2, hM2 (Homo sapiens, UniProt P08172).
T2 sequence (P08172 1-466): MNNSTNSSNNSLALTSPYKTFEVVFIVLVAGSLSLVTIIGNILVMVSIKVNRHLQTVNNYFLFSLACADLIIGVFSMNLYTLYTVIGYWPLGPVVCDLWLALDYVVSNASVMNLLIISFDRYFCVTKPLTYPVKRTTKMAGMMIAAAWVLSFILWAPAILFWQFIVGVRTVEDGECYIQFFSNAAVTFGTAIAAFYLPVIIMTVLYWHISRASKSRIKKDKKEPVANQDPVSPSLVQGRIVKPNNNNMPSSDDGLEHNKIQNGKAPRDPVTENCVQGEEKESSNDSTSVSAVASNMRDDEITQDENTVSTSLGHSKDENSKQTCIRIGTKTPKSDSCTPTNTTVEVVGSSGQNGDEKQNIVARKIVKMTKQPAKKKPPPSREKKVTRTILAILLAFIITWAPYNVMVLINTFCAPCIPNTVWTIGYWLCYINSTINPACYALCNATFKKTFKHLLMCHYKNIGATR
Description: mAChR subtype selectivity / counter screen, hM2. The test is classed as cell-based. (In general: A counterscreen serves to expose hits that act by an unwanted route or on another target.)

Regarding `COc1cccc(C2CN(C(=O)c3sc4nnc(C)c(C)c4c3N)C2)c1` [Compound 10h], at hM4, the “loss of potency (fold)” value is reported as greater than 100 fold.

Turning to `Cc1nnc2sc(C(=O)N3CC(c4ccc(Cl)cc4)C3)c(N)c2c1C` [Compound 10m], at hM4, the hM4 activity result is listed as “complete loss of hM4 activity”.

In the case of `Cc1nnc2sc(C(=O)N3CC(O)(c4ccccc4)C3)c(N)c2c1C` [Compound 11a], at hM4, the “loss of potency (fold)” value is recorded as ~ 10 fold.

Turning to `Cc1nnc2sc(C(=O)N3CC(c4ccc(F)cc4)C3)c(N)c2c1C` [Compound 10l], on hM2, the “activity at hM2” value is “inactive”.

Regarding `COc1ccc(C2CN(C(=O)c3sc4nnc(C)c(C)c4c3N)C2)cc1` [Compound 10i], the “loss of potency (fold)” value at hM4 is ~ 3.5 fold.

As for `COC1(c2cccc(F)c2)CN(C(=O)c2sc3nnc(C)c(C)c3c2N)C1` [Compound 11b], on hM4, the “loss of potency (fold)” value is on record as ~ 6 fold.

Consider `Cc1nnc2sc(C(=O)N3CC(c4ccc(Br)cc4)C3)c(N)c2c1C` [Compound 10n], for which the hM4 activity result on hM4 is on record as “complete loss of hM4 activity”.
